The text below walks through data of BindingDB's records for patent WO2025054369 (NICO Therapeutics, 2025).

The experiment deals with T1, NAD(+) hydrolase SARM1 (Homo sapiens, UniProt Q6SZW1).
T1 sequence (Q6SZW1 whole entry): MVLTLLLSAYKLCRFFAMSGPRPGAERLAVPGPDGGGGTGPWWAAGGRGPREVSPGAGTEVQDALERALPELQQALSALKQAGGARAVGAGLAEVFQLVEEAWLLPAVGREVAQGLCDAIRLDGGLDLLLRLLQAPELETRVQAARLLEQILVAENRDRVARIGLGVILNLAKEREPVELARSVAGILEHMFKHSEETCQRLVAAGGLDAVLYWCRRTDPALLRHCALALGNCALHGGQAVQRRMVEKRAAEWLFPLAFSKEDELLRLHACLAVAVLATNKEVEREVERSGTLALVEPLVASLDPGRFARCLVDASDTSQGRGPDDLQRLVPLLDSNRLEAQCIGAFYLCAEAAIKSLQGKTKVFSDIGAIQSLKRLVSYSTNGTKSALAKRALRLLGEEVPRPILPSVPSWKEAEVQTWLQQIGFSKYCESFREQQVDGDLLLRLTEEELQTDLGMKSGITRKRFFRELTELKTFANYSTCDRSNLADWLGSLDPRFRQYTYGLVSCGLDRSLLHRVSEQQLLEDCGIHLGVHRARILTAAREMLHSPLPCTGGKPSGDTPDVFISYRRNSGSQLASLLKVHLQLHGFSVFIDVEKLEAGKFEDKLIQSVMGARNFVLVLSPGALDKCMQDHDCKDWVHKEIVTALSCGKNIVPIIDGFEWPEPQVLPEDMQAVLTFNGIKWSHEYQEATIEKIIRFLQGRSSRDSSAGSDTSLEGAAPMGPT
The experiment is described as follows: Biochemical Assay of the Compounds. On the procedure:
Preparation of full-length SARM1 (FL-SARM1) lysate: HEK293T cells (ATCC: CRL-3216) were grown on 150 mm TC-treated dishes to 80-90% confluency in complete DMEM (DMEM (Thermo Fisher: 11965175) supplemented with 10% HI-FBS (VWR: 10802-772), 1x Pen/Strep (Thermo Fisher: 15140122), 1x NEAA (Thermo Fisher: 1140050), 1x glutamax (Thermo Fisher: 35050061), and 1 mM sodium pyruvate (Thermo Fisher: 11360070)) at 37 °C and 5% CO2. One hour prior to transfection, the media was replaced with fresh, 37 °C complete DMEM (20 mL per one 150 mm dish) supplemented with additional 10mM glucose (Alfa Aesar AAJ60067EQE). Per one 150 mm dish, 30 µg FL-SARM1 (SEQ. ID.1; cloned in-house) plasmid was dissolved in 1 mL DMEM at ambient temperature and were mixed by inverting the tube 8-10 times.90 µL of GenJet™ in vitro DNA transfection reagent (Ver2) was dissolved in 1 mL DMEM at ambient temperature and were mixed by inverting the tube 8-10 times. The plasmid and transfection agent solutions were combined, mixed by 8-10 inversions and incubated for 10 minutes at ambient temperature.2 mL of this transfection mixture was added to each dish containing HEK293T cells as prepared above followed by a gentle mixing of 4-5 horizontal rotations. The dishes were incubated at 37 °C and 5% CO2 for 24 h. The dishes were removed from the incubator, the medium was aspirated and the cells were scraped off using cell scrapers in ice-cold 1x PBS (5 mL/dish, Thermo Fisher Scientific 10010023). The collected cells were centrifuged at 300 g for 5 minutes at 4 °C. The supernatant was aspirated and the pellet was frozen at -80 °C until needed. The cell pellet from 30 dishes was dissolved in 30 mL 1x PBS supplemented with 4 tablets of Complete, Mini EDTA-free protease inhibitor cocktail at 4 °C. This mixture was sonicated on ice for 10 minutes at 50% amplitude with a 1 second on/1 second off interval using a Model 120 sonicator (Thermo Fisher Scientific, FB120110). The lysate was centrifuged at 16000 g for 10 minutes at 4 °C.

The structures appear in SMILES notation.

Regarding `N#C[C@@H]1CC[C@H]1c1cc(NC(=O)N2C3CC2CC(C(F)(F)F)C3)ccc1C(F)(F)F` (stereo not given in full) [WO2025054369, Example 55], the IC50 (as a rule, the concentration that inhibits the measured activity by half) was less than 1000 nM.

Regarding `N#C[C@H]1CC[C@H]1c1cc(NC(=O)N2C3CCC2CC(C(F)(F)F)C3)ccc1Cl` (relative stereo; form 1) [WO2025054369, Example 44], the IC50 was less than 1000 nM.

The compound `Cc1ccc(NC(=O)N2C3CC(C)CC2C3)cc1C1CCC1C#N` (stereo not given) [WO2025054369, Example 6] came in with a half-inhibitory concentration (IC50) of less than 1000 nM.

The compound `CC1CC2CC(C1)N2C(=O)Nc1ccc(Cl)c([C@H]2CC[C@@]2(C)O)c1` (stereo not given in full) [WO2025054369, Example 47] had a 50% inhibitory concentration (IC50) greater than 10000 nM.

The compound `CC1CC2CC(C1)N2C(=O)Nc1ccc(Cl)c(C2CCC2(F)F)c1` (stereo not given) [WO2025054369, Example 76] showed an IC50 of less than 1000 nM.

Consider `Cc1nnc([C@]23CCC[C@H](C2)N3C(=O)Nc2ccc(Cl)c(C3CCC3)c2)o1` [WO2025054369, Example 58], for which the IC50 is greater than 10000 nM.

For the compound `CC1CC2CC(C1)N2C(=O)Nc1ccc(Cl)c(C2CCC2=O)c1` (stereo not given) [WO2025054369, Example 83], the IC50 was less than 1000 nM.

In turn, `CC1CC2CC(C1)N2C(=O)Nc1ccc(Cl)c([C@@H]2CCC[C@@H]2C#N)c1` (stereo not given in full) [WO2025054369, Example 60] came in with a 50% inhibitory concentration (IC50) of less than 1000 nM.

In turn, `Cc1nnc([C@]23C[C@H](C[C@H](C(F)(F)F)C2)N3C(=O)Nc2ccc(Cl)c(C3CCC3)c2)o1` [WO2025054369, Example 69] returned an IC50 greater than 10000 nM.

For `CC1CC2CC(C1)N2C(=O)Nc1ccc(Cl)c([C@H]2CC[C@H]2C#N)c1` (stereo not given in full) [WO2025054369, Example 10], the IC50 is less than 1000 nM.

Regarding `Cc1noc(C23CC(C)CC(C2)N3C(=O)Nc2ccc(Cl)c(C3CCCC3)c2)n1` (stereo not given) [WO2025054369, Example 82], the half-inhibitory concentration (IC50) is less than 1000 nM.

As to `CC1CC2CC(C1)N2C(=O)Nc1ccc(Cl)c([C@@H]2CC[C@@H]2C#N)c1` (stereo not given in full) [WO2025054369, Example 9], the concentration for half-maximal inhibition (IC50) was less than 1000 nM.

`Cc1ccc(NC(=O)CC2CCC2)cc1C1CCC1` [WO2025054369, Example 11] registered an IC50 greater than 10000 nM.

The compound `CC1CC2CC(C1)N2C(=O)Nc1ccc(Cl)c(C2CC(C)(O)C2)c1` (stereo not given) [WO2025054369, Example 38] showed an IC50 of less than 1000 nM.

For `Cc1nnc(C23CC(C)CC(C2)N3C(=O)Nc2ccc(Cl)c([C@@H]3C[C@@H]3C#N)c2)o1` (stereo not given in full) [WO2025054369, Example 16], half-maximal inhibition (IC50) required 5500 nM.

For the compound `Cc1ccc(NC(=O)N2C3CCCC2C3)cc1C12CC(C)(C1)C2` [WO2025054369, Example 24], the IC50 is less than 1000 nM.

With `N#C[C@@H]1CC[C@@H]1c1cc(NC(=O)N2C3CC2CC(C(F)(F)F)C3)ccc1Cl` (stereo not given in full) [WO2025054369, Example 33], the IC50 is less than 1000 nM.

The compound `Cc1nnc(C23CC(C)CC(C2)N3C(=O)Nc2ccc(Cl)c([C@@H]3CC[C@@H]3C#N)c2)o1` (stereo not given in full) [WO2025054369, Example 3] showed a half-inhibitory concentration (IC50) of less than 1000 nM.

As for `C[C@@H]1C[C@@H]2C[C@H](C1)N2C(=O)Nc1ccc(Cl)c(N2CC(C#N)C2)c1` [WO2025054369, Example 91], the IC50 was less than 1000 nM.

In the case of `O=C(Nc1ccc(Cl)c([C@H]2C[C@H](O)C2)c1)N1C2CC1CC(C(F)(F)F)C2` (stereo not given in full) [WO2025054369, Example 42], the IC50 is less than 1000 nM.

Turning to `CC1CC2CC(C1)N2C(=O)Nc1ccc(Cl)c([C@@H]2CC[C@@H]2n2ccnn2)c1` (relative stereo) [WO2025054369, Example 28], the 50% inhibitory concentration (IC50) was less than 1000 nM.

As to `C[C@]1(O)CC[C@H](c2cc(NC(=O)N3C4CC3CC(C(F)(F)F)C4)ccc2Cl)C1` (stereo not given in full) [WO2025054369, Example 64], the half-maximal inhibitory concentration (IC50) is less than 1000 nM.

As to `CC1CC2CC(C1)N2C(=O)Nc1cc(F)c(Cl)c([C@@H]2CC[C@@H]2C#N)c1` (stereo not given in full) [WO2025054369, Example 34], the IC50 is less than 1000 nM.

For `O=C(Nc1ccc(Cl)c(N2CC(O)C2)c1)N1C2CC1CC(C(F)(F)F)C2` (stereo not given) [WO2025054369, Example 89], the IC50 was less than 1000 nM.

For `CC1CC2CC(C1)N2C(=O)Nc1ccc(Cl)c([C@@H]2CC[C@H]2n2nccn2)c1` (relative stereo) [WO2025054369, Example 29], inhibition was half-maximal at 5500 nM (IC50).
